Patent publication US9700501B2, “Use of indole compounds as a cosmetic” (MERCK PATENT GESELLSCHAFT MIT BESCHRANKTER HAFTUNG, priority 2008, dated 2017)

Legend:
PPAR gamma = assay: PPAR-gamma transactivation assay (luciferase reporter, CV1 cells expressing PPARγ); format: cell-based, human; settings: for Fold Activation PPAR gamma: 36 h incubation, luciferase activity relative to control
Source text: (§1) Analysis of the activation of PPARα and PPARγ is based on the transfection of a DNA allowing the expression of a reporter gene (the gene of luciferase) under the control of the PPARs, either endogenous in the case of PPARγ or exogenous in the case of PPARα. The reporter plasmid J3TkLuc comprises three copies of the response element for PPARs of the human apo A-II gene (Staels, B et al. (1995), J. Clin. Invest., 95, 705-712) which are cloned upstream of the promoter of the thymidine kinase gene of the herpes simplex virus in the plasmid pGL3. This reporter gene was obtained by subcloning, in the plasmid pGL3, the plasmid J3TkCAT described above (Fajas, L et al. (1997), J. Biol. Chem., 272, 18779-18789). […] These cells were inoculated at the rate of 20,000 cells per well (96-well plates) and transfected with 150 ng of reporter DNA complexed with a mixture of lipids. In the case of the SK-Hep1 cells, an expression vector for PPARα, described by Sher, T. et al. (1993), Biochemistry, 32, 5598-5604, is cotransfected. After 5 hours, the cells are washed twice and incubated for 36 hours in the presence of the test compound in a fresh culture medium comprising 10% foetal calf serum. At the end of incubation, the cells are lysed and the luciferase activity is measured.

B16-V melanoma cells = assay: Inhibition of melanin synthesis in B16-V melanoma cells (whitening activity); format: cell-based; settings: 72 h, alpha-MSH stimulation, FIG. 1
Experimental: B16-V melanoma cells were incubated for 72 h with assay medium containing different amounts of test substances. The concentration depends on the results of the MTT-Assay. Only concentrations without effect on viability (after 24 h incubation) were used for further melanin evaluation. Every 24 hours medium was changed and replaced by fresh assay medium containing the compounds and alpha-MSH (stimulation of melanin synthesis). The cell number was determined and the cells got lysed using 1M NaOH. Afterwards the amount of melanin was measured at 405 nm with a microplatereader (Safire2™, Tecan). Different concentrations of synthetic melanin were used to produce a calibration curve. Melanin content was expressed as pg/cell.

[1] = tested on: epidermal differentiation proteins; assay: In vitro expression of epidermal differentiation proteins; format: cell-based; settings: own unpublished results
PPAR alpha = biological target: T1, PPAR alpha (Homo sapiens, UniProt Q07869); assay: PPAR-alpha transactivation assay (luciferase reporter, SK-Hep1 cells cotransfected with PPARα expression vector); format: cell-based; settings: for Fold Activation PPAR alpha: 36 h incubation, luciferase activity relative to control
T1 construct: expressed in transfected cells; host or cells: human SK-Hep1 cells
T1 sequence (Q07869 1-468): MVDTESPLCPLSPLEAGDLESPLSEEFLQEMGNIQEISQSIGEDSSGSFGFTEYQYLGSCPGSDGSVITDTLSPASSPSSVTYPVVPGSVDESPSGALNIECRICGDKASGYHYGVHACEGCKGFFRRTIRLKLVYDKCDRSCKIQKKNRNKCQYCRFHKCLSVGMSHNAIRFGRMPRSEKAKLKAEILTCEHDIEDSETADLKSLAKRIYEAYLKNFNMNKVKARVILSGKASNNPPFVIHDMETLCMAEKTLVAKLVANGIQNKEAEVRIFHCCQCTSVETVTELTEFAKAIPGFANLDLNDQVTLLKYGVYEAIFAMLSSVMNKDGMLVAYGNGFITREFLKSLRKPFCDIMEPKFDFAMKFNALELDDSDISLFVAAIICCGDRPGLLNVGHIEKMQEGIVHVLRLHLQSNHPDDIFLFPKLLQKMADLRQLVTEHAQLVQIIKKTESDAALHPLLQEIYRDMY
Source text: as §1

## CCOC(=O)c1c(C)n(CC(C)C)c2ccc(OC(C)(C(=O)O)c3ccccc3)cc12 (stereo not shown) [Compound, 2-Phenyl-2-(1-isobutyl-2-methyl-3-ethoxycarbonyl-5-indolyloxy)-propionic acid]
PPAR gamma
  PPAR-gamma activation (in words): activator
PPAR gamma; 0.1 μm
  Fold Activation PPAR gamma: 0.6 fold
PPAR gamma; 0.3 μm
  Fold Activation PPAR gamma: 1.8 fold
PPAR gamma; 1 μm
  Fold Activation PPAR gamma: 2.8 fold
PPAR gamma; 3 μm
  Fold Activation PPAR gamma: 3.0 fold
PPAR gamma; 6.25 μm
  Fold Activation PPAR gamma: 12.9 fold
PPAR gamma; 10 μm
  Fold Activation PPAR gamma: 4.3 fold
PPAR gamma; 12.5 μm
  Fold Activation PPAR gamma: 16.9 fold
PPAR gamma; 25 μm
  Fold Activation PPAR gamma: 18.7 fold
PPAR gamma; 30 μm
  Fold Activation PPAR gamma: 7.6 fold
PPAR gamma; 50 μm
  Fold Activation PPAR gamma: 18.8 fold
B16-V melanoma cells
  melanin inhibiting activity: superb melanin inhibiting activity
  melanin inhibiting activity compared with kojic acid: significantly better than kojic acid
[1]
  expression of epidermal differentiation proteins: increased expression of epidermal differentiation proteins
PPAR alpha
  PPAR-alpha activation (in words): activator
PPAR alpha; 0.1 μm
  Fold Activation PPAR alpha: 1.0 fold
PPAR alpha; 0.3 μm
  Fold Activation PPAR alpha: 1.3 fold
PPAR alpha; 1 μm
  Fold Activation PPAR alpha: 1.9 fold
PPAR alpha; 3 μm
  Fold Activation PPAR alpha: 2.3 fold
PPAR alpha; 6.25 μm
  Fold Activation PPAR alpha: 10.2 fold
PPAR alpha; 10 μm
  Fold Activation PPAR alpha: 6.7 fold
PPAR alpha; 12.5 μm
  Fold Activation PPAR alpha: 21.6 fold
PPAR alpha; 25 μm
  Fold Activation PPAR alpha: 34.8 fold
PPAR alpha; 30 μm
  Fold Activation PPAR alpha: 31.1 fold
PPAR alpha; 50 μm
  Fold Activation PPAR alpha: 42.0 fold
